Holding throughout (format): cell-based
The target in assay [1] is P2Y purinoceptor 1 (Homo sapiens, UniProt P47900). Briefly: Inhibition concentration required against wild type strain P2Y1 receptor expressed in COS-7 cells is determined using [3H]-MRS2279 as radioligand.
The target in assay [2] is P2Y purinoceptor 1 (Homo sapiens, UniProt P47900, Y203A). Briefly: Inhibition concentration required against human Y203A (EL2) mutant strain P2Y1 receptor expressed in COS-7 cells is determined using [3H]MRS2279 as radioligand.
For assay [3], the target named is P2Y purinoceptor 1 (Homo sapiens, UniProt P47900, Y203F). Kind of assay: Inhibition concentration required against human Y203F mutant strain P2Y1 receptor expressed in COS-7 cells is determined using [3H]MRS2279 as radioligand.
The target in assay [4] is P2Y purinoceptor 1 (Homo sapiens, UniProt P47900, Y273A). Kind of assay: Inhibition concentration required against human Y273A mutant strain P2Y1 receptor expressed in COS-7 cells is determined using [3H]-MRS2279 as radioligand.
Assay [5] addresses P2Y purinoceptor 1 (Homo sapiens, UniProt P47900, Y273F). Briefly: Inhibition concentration required against human Y273F mutant strain P2Y1 receptor expressed in COS-7 cells is determined using [3H]MRS2279 as radioligand.
Assay [6] addresses P2Y purinoceptor 1 (Homo sapiens, UniProt P47900, Y306A). Kind of assay: Inhibition concentration required against human Y306A mutant strain P2Y1 receptor expressed in COS-7 cells is determined using [3H]MRS2279 as radioligand.
Assay [7] deals with P2Y purinoceptor 1 (Homo sapiens, UniProt P47900, Y306F). Briefly: Inhibition concentration required against human Y306F mutant strain P2Y1 receptor expressed in COS-7 cells is determined using [3H]MRS2279 as radioligand.
Chain of P2Y purinoceptor 1 (Homo sapiens, UniProt P47900, Y306F) (P47900 whole entry Y306F): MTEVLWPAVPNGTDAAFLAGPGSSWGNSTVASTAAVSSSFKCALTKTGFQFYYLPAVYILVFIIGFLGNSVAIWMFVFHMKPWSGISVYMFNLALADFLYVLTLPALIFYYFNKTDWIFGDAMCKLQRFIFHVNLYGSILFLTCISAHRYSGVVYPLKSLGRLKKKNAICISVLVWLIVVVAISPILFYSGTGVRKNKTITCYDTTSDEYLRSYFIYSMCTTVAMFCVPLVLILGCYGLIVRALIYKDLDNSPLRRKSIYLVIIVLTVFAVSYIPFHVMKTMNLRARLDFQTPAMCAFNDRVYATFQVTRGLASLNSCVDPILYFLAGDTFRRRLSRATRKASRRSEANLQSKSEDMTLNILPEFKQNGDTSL

Chain of P2Y purinoceptor 1 (Homo sapiens, UniProt P47900, Y273A) (P47900 whole entry Y273A): as the sequence (P47900 whole entry Y306F) above, with Y273A, F306Y counted along it
Chain of P2Y purinoceptor 1 (Homo sapiens, UniProt P47900, Y203F) (P47900 whole entry Y203F): as the sequence (P47900 whole entry Y306F) above, with Y203F, F306Y counted along it
Chain of P2Y purinoceptor 1 (Homo sapiens, UniProt P47900) (P47900 whole entry): as the sequence (P47900 whole entry Y306F) above, with F306Y counted along it
Chain of P2Y purinoceptor 1 (Homo sapiens, UniProt P47900, Y203A) (P47900 whole entry Y203A): as the sequence (P47900 whole entry Y306F) above, with Y203A, F306Y counted along it
Chain of P2Y purinoceptor 1 (Homo sapiens, UniProt P47900, Y306A) (P47900 whole entry Y306A): as the sequence (P47900 whole entry Y306F) above, with F306A counted along it
Chain of P2Y purinoceptor 1 (Homo sapiens, UniProt P47900, Y273F) (P47900 whole entry Y273F): as the sequence (P47900 whole entry Y306F) above, with Y273F, F306Y counted along it

With `CNc1ncnc2c1ncn2[C@H]1CC(OP(=O)(O)O)[C@@H](COP(=O)(O)O)O1` (single isomer, unassigned), the IC50 (usually the concentration that inhibits the measured activity by half) turned out to be 210 nM on P2Y purinoceptor 1 [1]; 740 nM at P2Y purinoceptor 1 [2]; 330 nM at P2Y purinoceptor 1 [3]; 480 nM on P2Y purinoceptor 1 [4]; 660 nM at P2Y purinoceptor 1 [5]; 320 nM at P2Y purinoceptor 1 [6]. For the same compound, on P2Y purinoceptor 1 [7], the IC50 worked out at 980 nM.
